# Literature values in patent publication US8063249B1, “Substituted triphenyl butenes” (Olema Pharmaceuticals, Inc., priority 2008, dated 2011).
# Read-outs that look alike come from different tables or passages of the source.
# Tests used:
# [1] = system: ER; conditions: for binding to the ER: statement in words, from the literature; for binding constants for the ER compared with estradiol: relative to estradiol, from Jordan, Steroids 2007
# [2] = target: T1, UGT 1A8 (Homo sapiens, UniProt Q9HAW9)
# T1 sequence (Q9HAW9 26-530): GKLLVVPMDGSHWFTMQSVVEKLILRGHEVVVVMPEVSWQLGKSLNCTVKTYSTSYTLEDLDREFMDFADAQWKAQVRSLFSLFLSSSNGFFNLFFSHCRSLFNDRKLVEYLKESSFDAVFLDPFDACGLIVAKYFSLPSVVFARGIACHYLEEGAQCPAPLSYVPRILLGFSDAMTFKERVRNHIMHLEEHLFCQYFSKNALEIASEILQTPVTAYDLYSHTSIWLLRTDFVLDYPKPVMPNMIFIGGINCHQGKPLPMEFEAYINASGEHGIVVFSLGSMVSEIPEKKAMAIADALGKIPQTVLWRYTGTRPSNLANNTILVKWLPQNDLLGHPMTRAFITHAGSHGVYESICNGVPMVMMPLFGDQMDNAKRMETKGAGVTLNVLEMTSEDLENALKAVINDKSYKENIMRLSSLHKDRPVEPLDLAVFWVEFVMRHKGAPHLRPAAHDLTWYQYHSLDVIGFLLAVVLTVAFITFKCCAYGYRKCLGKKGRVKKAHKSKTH
# [3] = target: T2, UGT 1A10 (Homo sapiens, UniProt Q9HAW8)
# T2 sequence (Q9HAW8 26-530): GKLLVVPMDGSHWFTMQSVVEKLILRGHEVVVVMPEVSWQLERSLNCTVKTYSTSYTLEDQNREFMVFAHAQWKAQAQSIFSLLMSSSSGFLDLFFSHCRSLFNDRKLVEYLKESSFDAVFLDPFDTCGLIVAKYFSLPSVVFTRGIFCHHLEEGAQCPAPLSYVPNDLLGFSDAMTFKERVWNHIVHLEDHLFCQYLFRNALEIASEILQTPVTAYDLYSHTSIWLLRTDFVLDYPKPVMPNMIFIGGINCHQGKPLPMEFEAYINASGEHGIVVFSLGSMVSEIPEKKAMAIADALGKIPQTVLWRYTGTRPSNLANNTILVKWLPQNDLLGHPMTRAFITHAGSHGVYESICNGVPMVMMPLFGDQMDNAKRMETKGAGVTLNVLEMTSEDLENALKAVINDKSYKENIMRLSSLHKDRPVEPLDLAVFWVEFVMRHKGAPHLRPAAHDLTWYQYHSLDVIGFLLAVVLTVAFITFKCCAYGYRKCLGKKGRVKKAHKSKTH
# [4] = hydroxy group, from Sun et al. 2007
binding to the ER [1],binding constants for the ER compared with estradiol [1],"substrate for O-glucuronidation by UGT 1A8 [2, 4]","substrate for O-glucuronidation by UGT 1A10 [3, 4]",substrate for O-glucuronidation by UGT 1A8 [2],substrate for O-glucuronidation by UGT 1A10 [3],Molecule
binds very poorly,,,,,,"CC/C(=C(\c1ccccc1)c1ccc(OCCN(C)C)cc1)c1ccccc1 [Tamoxifen, tamoxifen]"
can no longer bind,,,,,,CCC(=C(c1ccc(OCCNC)cc1)c1ccc(OC2OC(C(=O)O)C(O)C(O)C2O)cc1)c1ccccc1 (stereo not shown) [glucuronated endoxifen]
bind with high affinity,roughly equal to that of estradiol,substrates for O-glucuronidation,substrates for O-glucuronidation,,,"CC/C(=C(\c1ccc(O)cc1)c1ccc(OCCNC)cc1)c1ccccc1 [endoxifen, 4-hydroxy N-desmethyl tamoxifen]"
bind with high affinity,roughly equal to that of estradiol,,,substrates for O-glucuronidation,substrates for O-glucuronidation,4-hydroxy tamoxifen
